Measured values: the NIST ThermoML archive (doi:10.1021/acs.jced.8b00132)
Values joined by “and” are separate entries in the source; they are usually repeats but may differ in a detail not shown here. Equal values may be shown once. ± gives the expanded uncertainty stated by the source.

O=C(C(F)(F)C(F)(F)F)C(F)(C(F)(F)F)C(F)(F)F [dodecafluoro-2-methylpentan-3-one]
Details	thermal conductivity
344.55 K, 132 kPa, Gas, hot wire	0.01525 ± 0.00073 W/m/K
344.55 K, 192 kPa, Gas, transient hot wire	0.01458 ± 0.00091 W/m/K
344.56 K, 170 kPa, Gas, transient hot wire	0.01468 ± 0.00093 W/m/K
344.56 K, 192 kPa, Gas, transient hot wire	0.01463 ± 0.00091 W/m/K
344.57 K, 170 kPa, Gas, transient hot wire	0.01503 ± 0.00094 W/m/K
344.6 K, 134 kPa, Gas, transient hot wire	0.01526 ± 0.00095 W/m/K and 0.01525 ± 0.00095 W/m/K
344.61 K, 83 kPa, Gas, hot wire	0.01485 ± 0.0007 W/m/K
344.62 K, 83 kPa, Gas, hot wire	0.0148 ± 0.0007 W/m/K
344.67 K, 26 kPa, Gas, hot wire	0.01453 ± 0.00069 W/m/K
344.68 K, 26 kPa, Gas, hot wire	0.01449 ± 0.00069 W/m/K
344.8 K, 192 kPa, Gas, transient hot wire	0.01479 ± 0.00097 W/m/K and 0.01481 ± 0.00097 W/m/K
344.83 K, 170 kPa, Gas, transient hot wire	0.01525 ± 0.00095 W/m/K and 0.01449 ± 0.00091 W/m/K
344.85 K, 134 kPa, Gas, transient hot wire	0.01542 ± 0.00096 W/m/K
344.87 K, 134 kPa, Gas, transient hot wire	0.01544 ± 0.001 W/m/K
345.08 K, 191 kPa, Gas, transient hot wire	0.0149 ± 0.00095 W/m/K
345.08 K, 192 kPa, Gas, transient hot wire	0.01491 ± 0.00095 W/m/K
345.11 K, 169 kPa, Gas, transient hot wire	0.01531 ± 0.00096 W/m/K
345.11 K, 170 kPa, Gas, transient hot wire	0.01528 ± 0.00095 W/m/K
345.14 K, 134 kPa, Gas, transient hot wire	0.01546 ± 0.00096 W/m/K
345.15 K, 133 kPa, Gas, transient hot wire	0.01547 ± 0.00096 W/m/K
345.36 K, 191 kPa, Gas, transient hot wire	0.01503 ± 0.00095 W/m/K
345.37 K, 191 kPa, Gas, transient hot wire	0.01504 ± 0.00095 W/m/K
345.39 K, 169 kPa, Gas, transient hot wire	0.01534 ± 0.00096 W/m/K
345.4 K, 169 kPa, Gas, transient hot wire	0.01485 ± 0.00093 W/m/K
345.44 K, 133 kPa, Gas, transient hot wire	0.01551 ± 0.00099 W/m/K
345.45 K, 133 kPa, Gas, transient hot wire	0.0155 ± 0.00099 W/m/K
345.67 K, 191 kPa, Gas, transient hot wire	0.01515 ± 0.00094 W/m/K
345.68 K, 191 kPa, Gas, transient hot wire	0.01514 ± 0.00094 W/m/K
345.72 K, 169 kPa, Gas, transient hot wire	0.0154 ± 0.00095 W/m/K and 0.01511 ± 0.00094 W/m/K
345.77 K, 132 kPa, Gas, transient hot wire	0.01531 ± 0.00095 W/m/K
345.77 K, 133 kPa, Gas, transient hot wire	0.01548 ± 0.00096 W/m/K
358.25 K, 257 kPa, Gas, hot wire	0.01686 ± 0.0008 W/m/K
358.26 K, 257 kPa, Gas, hot wire	0.01685 ± 0.00079 W/m/K
358.3 K, 188 kPa, Gas, hot wire	0.01631 ± 0.00078 W/m/K
358.3 K, 189 kPa, Gas, hot wire	0.01648 ± 0.00078 W/m/K
358.33 K, 91 kPa, Gas, hot wire	0.01584 ± 0.00075 W/m/K
358.34 K, 91 kPa, Gas, hot wire	0.01584 ± 0.00075 W/m/K
358.37 K, 26 kPa, Gas, hot wire	0.01548 ± 0.00073 W/m/K and 0.01551 ± 0.00073 W/m/K
358.38 K, 256 kPa, Gas, hot wire	0.01692 ± 0.0008 W/m/K
358.38 K, 257 kPa, Gas, hot wire	0.01694 ± 0.0008 W/m/K
358.43 K, 187 kPa, Gas, hot wire	0.01629 ± 0.00078 W/m/K
358.43 K, 188 kPa, Gas, hot wire	0.01632 ± 0.00078 W/m/K
358.47 K, 91 kPa, Gas, hot wire	0.01587 ± 0.00075 W/m/K and 0.0159 ± 0.00075 W/m/K
358.5 K, 26 kPa, Gas, hot wire	0.01551 ± 0.00073 W/m/K
358.5 K, 256 kPa, Gas, hot wire	0.01713 ± 0.00081 W/m/K
358.51 K, 26 kPa, Gas, hot wire	0.0155 ± 0.00073 W/m/K
358.52 K, 256 kPa, Gas, hot wire	0.0169 ± 0.0008 W/m/K
358.57 K, 187 kPa, Gas, hot wire	0.01629 ± 0.00077 W/m/K and 0.01635 ± 0.00078 W/m/K
358.62 K, 91 kPa, Gas, hot wire	0.01584 ± 0.00075 W/m/K and 0.01592 ± 0.00075 W/m/K
358.62 K, 255 kPa, Gas, hot wire	0.01734 ± 0.00082 W/m/K
358.63 K, 256 kPa, Gas, hot wire	0.01729 ± 0.00082 W/m/K
358.65 K, 67979 kPa, Liquid, transient hot wire	0.07391 ± 0.0015 W/m/K
358.66 K, 26 kPa, Gas, hot wire	0.01548 ± 0.00073 W/m/K and 0.01547 ± 0.00073 W/m/K
358.66 K, 67960 kPa, Liquid, transient hot wire	0.07383 ± 0.0015 W/m/K
358.69 K, 56156 kPa, Liquid, transient hot wire	0.07064 ± 0.0014 W/m/K
358.69 K, 56160 kPa, Liquid, transient hot wire	0.07055 ± 0.0014 W/m/K
358.71 K, 187 kPa, Gas, hot wire	0.01648 ± 0.00078 W/m/K and 0.01644 ± 0.00078 W/m/K
358.77 K, 92 kPa, Gas, hot wire	0.01588 ± 0.00075 W/m/K and 0.01586 ± 0.00075 W/m/K
358.77 K, 255 kPa, Gas, hot wire	0.01736 ± 0.00082 W/m/K
358.77 K, 43866 kPa, Liquid, transient hot wire	0.06694 ± 0.0014 W/m/K
358.77 K, 43876 kPa, Liquid, transient hot wire	0.06686 ± 0.0014 W/m/K
358.78 K, 255 kPa, Gas, hot wire	0.01726 ± 0.00081 W/m/K
358.82 K, 26 kPa, Gas, hot wire	0.01555 ± 0.00073 W/m/K and 0.0155 ± 0.00073 W/m/K
358.82 K, 67912 kPa, Liquid, transient hot wire	0.07388 ± 0.0015 W/m/K
358.82 K, 67930 kPa, Liquid, transient hot wire	0.07402 ± 0.0015 W/m/K
358.83 K, 33615 kPa, Liquid, transient hot wire	0.06347 ± 0.0013 W/m/K
358.84 K, 257 kPa, Gas, transient hot wire	0.01632 ± 0.001 W/m/K
358.84 K, 258 kPa, Gas, transient hot wire	0.01621 ± 0.001 W/m/K
358.84 K, 33614 kPa, Liquid, transient hot wire	0.06347 ± 0.0013 W/m/K
358.85 K, 186 kPa, Gas, hot wire	0.0166 ± 0.00079 W/m/K and 0.01657 ± 0.00079 W/m/K
358.85 K, 56137 kPa, Liquid, transient hot wire	0.07063 ± 0.0014 W/m/K
358.88 K, 189 kPa, Gas, transient hot wire	0.01639 ± 0.001 W/m/K
358.88 K, 56124 kPa, Liquid, transient hot wire	0.07064 ± 0.0014 W/m/K
358.9 K, 188 kPa, Gas, transient hot wire	0.01635 ± 0.001 W/m/K
358.92 K, 24957 kPa, Liquid, transient hot wire	0.06017 ± 0.0012 W/m/K
358.92 K, 24958 kPa, Liquid, transient hot wire	0.06023 ± 0.0012 W/m/K
358.94 K, 92 kPa, Gas, hot wire	0.01588 ± 0.00075 W/m/K
358.95 K, 92 kPa, Gas, hot wire	0.01588 ± 0.00075 W/m/K
358.95 K, 43858 kPa, Liquid, transient hot wire	0.06694 ± 0.0014 W/m/K
358.95 K, 43862 kPa, Liquid, transient hot wire	0.06691 ± 0.0014 W/m/K
358.98 K, 26 kPa, Gas, hot wire	0.01553 ± 0.00073 W/m/K
358.99 K, 26 kPa, Gas, hot wire	0.0155 ± 0.00073 W/m/K
358.99 K, 67877 kPa, Liquid, transient hot wire	0.0739 ± 0.0015 W/m/K
358.99 K, 67897 kPa, Liquid, transient hot wire	0.07388 ± 0.0015 W/m/K
